This is an account of results in ChEMBL document CHEMBL3120136 (J Med Chem, 2014).

Data set [1] concerns Hepatitis C virus. The data set is described as follows: Antiviral activity against Hepatitis C virus infected in human HuH7 cells assessed as inhibition of HCV subgenomic replicon replication after 72 hrs by ELISA. The class given is functional, organism-based, Hepacivirus hominis, Huh-7. As to conditions: Hepatitis C virus, Huh-7, 72 h; read-out: EC50.
A short description of data set [2]: Inhibition of Hepatitis C virus full-length NS3/4A protease assessed as quenched-fluorogenic RET-S1 substrate cleavage incubated for 10 mins prior to substrate addition by FRET analysis. More on the design: species or system Hepacivirus hominis.
The nature of data set [3]: (§1) Ratio of AUC (0 to 24 hrs) in liver to plasma in Sprague-Dawley rat at 30 mg/kg, po by HPLC-MS/MS analysis. In kind it is ADME, organism-based. Further details: dose 30 mg/kg, route oral. As to conditions: Sprague-Dawley, liver and plasma, read-out: Ratio AUC.
Data set [4] is described as follows: AUC (0 to 24 hrs) in Sprague-Dawley rat plasma at 30 mg/kg, po by HPLC-MS/MS analysis. The class given is ADME, organism-based. Further details: time < 24 hr, dose 30 mg/kg, route oral.
Data set [5] can be described thus: AUC (0 to 24 hrs) in Sprague-Dawley rat liver at 30 mg/kg, po by HPLC-MS/MS analysis. In kind it is ADME, organism-based. Further details: time < 24 hr, dose 30 mg/kg, route oral.
Data set [6] can be described thus: Plasma clearance in rat assessed as extraction ratio. Conditions: read-out: ERH. The class given is ADME, organism-based.
Data set [7] in a line: Efflux ratio of permeability from basolateral to apical side over apical to basolateral side in human Caco2 cells. In kind it is ADME, cell-based. Conditions: Caco-2.
The nature of data set [8]: Permeability from apical to basolateral side of human Caco2 cells. As to conditions: Caco-2, read-out: permeability. The class given is ADME, cell-based. Background: Caco-2 monolayers are a common model of the intestinal barrier.
Data set [9] in a line: Aqueous solubility of the compound at pH 6.5 by modified shake-flask method. The class given is physicochemical.
A short description of data set [10]: Aqueous solubility of the compound at pH 7.4 by modified shake-flask method. In kind it is physicochemical.
Data set [11] can be described thus: Aqueous solubility of the compound at pH 1.2 by modified shake-flask method. The class given is physicochemical.
Data set [12] in a line: Metabolic stability in dog hepatocytes assessed as extraction ratio at 1 uM. As to conditions: read-out: ERH. In kind it is ADME, cell-based, Canis lupus familiaris, Hepatocyte.
A short description of data set [13]: Metabolic stability in cynomolgus monkey hepatocytes assessed as extraction ratio at 1 uM. In kind it is ADME, cell-based, Macaca fascicularis, Hepatocyte. Conditions: read-out: ERH.
Data set [14] in a line: Metabolic stability in human hepatocytes assessed as extraction ratio at 1 uM. In kind it is ADME, cell-based, Hepatocyte. As to conditions: read-out: ERH.
The nature of data set [15]: Metabolic stability in rat hepatocytes assessed as extraction ratio at 1 uM. Conditions: read-out: ERH. In kind it is ADME, cell-based, Hepatocyte.
The nature of data set [16]: Lipophilicity, log D of the compound. The class given is physicochemical. As to conditions: octanol/water.
Data set [17] deals with Rattus norvegicus. Briefly: Volume of distribution at steady state in Sprague-Dawley rat at 1 mg/kg, iv by HPLC-MS/MS analysis. As to conditions: in vivo.
Data set [18] concerns Liver. Described as §1. Further details: dose 30 mg/kg, route oral. In kind it is ADME, organism-based. Conditions: other tissue.
Data set [19] is described as follows: Ratio of drug level in liver to plasma in Sprague-Dawley rat at 30 mg/kg, po by HPLC-MS/MS analysis. The class given is ADME, organism-based. More on the design: dose 30 mg/kg, route oral. Conditions: liver and plasma.

Converted amounts (≈) assume the structure as drawn.

As to `CN(C)S(=O)(=O)NC(=O)[C@@]12C[C@H]1/C=C\CCCCC[C@H](NC(=O)OC(C)(C)C)C(=O)N1C[C@H](OC(=O)N3Cc4ccccc4C3)C[C@H]1C(=O)N2`, the concentration giving a half-maximal response (EC50) (as a rule, the concentration that produces a half-maximal response) in data set [1] was found to be 2.8 nM. Also, the half-maximal inhibitory concentration (IC50) (usually the concentration that inhibits the measured activity by half) in data set [2] was found to be 2.5 nM. Besides, in data set [3], the Kp is 132. Also, the area under the curve AUC(0-t) (as a rule, the area under the concentration-time curve up to a stated or last time point) at 24 h stood at 1030 ng·h/mL in [4] and 136000 ng·h/mL in [5]. Moreover, in [6], the hepatic extraction ratio was above 1. For the same compound, in data set [7], the efflux ratio (usually a quotient of directional permeabilities that is used to spot active efflux) was above 2. The Papp A→B in [8] is below 2 ×10⁻⁶ cm/s. Moreover, the thermodynamic solubility (commonly solubility found after equilibrating the solid with the medium) is 165 µg/mL (≈ 230 µM) in [9], above 1000 µg/mL in data set [10] and 0.5 µg/mL (≈ 0.697 µM) in data set [11]. Further, the hepatic extraction ratio at 1 µM turned out to be 0.16 in data set [12], 0.56 in [13], 0.56 in data set [14] and 0.16 in [15]. Also, the logD (in general, the decadic logarithm of the distribution of all forms, ionised or not, between an organic phase and buffer at a given pH) in data set [16] came out at 2.5. Besides, in data set [17], the distribution volume (Vdss) (commonly a proportionality between amount in the body and measured concentration, not a real space) was found to be 2.583 L/kg.

Take `CC(C)(C)OC(=O)N[C@H]1CCCCC/C=C\[C@@H]2C[C@@]2(C(=O)NS(=O)(=O)C2CC2)NC(=O)[C@@H]2C[C@@H](OC(=O)N3CCc4ccccc4C3)CN2C1=O`: the EC50 in [1] worked out at 17.5 nM. For the same compound, the IC50 in [2] turned out to be 2.2 nM. Moreover, the “Ratio AUC” value in data set [18] turned out to be 4608. Moreover, the AUC(0-t) at 24 h stood at 60 ng·h/mL in [4] and 276000 ng·h/mL in [5]. The hepatic extraction ratio in data set [6] is above 1. In addition, in data set [7], the efflux ratio was above 2. For the same compound, in data set [8], the Papp A→B was below 2 ×10⁻⁶ cm/s. The values for the thermodynamic solubility in data set [9], in data set [10] and in [11] were 812 µg/mL (≈ 1120 µM), above 1000 µg/mL and 0.5 µg/mL (≈ 0.687 µM), respectively. In addition, the hepatic extraction ratio at 1 µM is 0.36 in [12], 0.53 in [13], 0.49 in data set [14] and 0.05 in data set [15]. Besides, the logD in data set [16] was determined as 2.2. For the same compound, the Kp in data set [19] was above 1000. The Vdss in [17] came to 5.982 L/kg.

Take `CC(C)(C)OC(=O)N[C@H]1CCCCC/C=C\[C@@H]2C[C@@]2(C(=O)NS(=O)(=O)C2CC2)NC(=O)[C@@H]2C[C@@H](OC(=O)N3Cc4ccccc4C3)CN2C1=O`: the EC50 in data set [1] was found to be 2 nM. In addition, the half-maximal inhibitory concentration (IC50) in data set [2] was 1.2 nM. For the same compound, the Kp in [3] amounted to 1.2. Besides, the AUC(0-t) at 24 h in data set [4] was determined as 32900 ng·h/mL; in data set [5], 40300 ng·h/mL. Moreover, the hepatic extraction ratio in [6] is 0.06. Besides, in data set [7], the efflux ratio was above 2. Further, in [8], the Papp A→B is below 2 ×10⁻⁶ cm/s. Besides, the solubility (thermodynamic) in data set [9] is 702 µg/mL (≈ 983 µM); in data set [10], above 1000 µg/mL; in data set [11], 0.5 µg/mL (≈ 0.7 µM). Moreover, the hepatic extraction ratio at 1 µM in data set [12] worked out at 0.33; in data set [13] it was 0.28; in data set [14], 0.65; in data set [15], 0.01. Besides, the pH-dependent lipophilicity (logD) in [16] turned out to be 2.4. The Vdss in data set [17] turned out to be 0.089 L/kg.

As to `CC(C)(C)OC(=O)N[C@H]1CCCCC/C=C\[C@@H]2C[C@@]2(C(=O)NS(=O)(=O)C2CC2)NC(=O)[C@@H]2C[C@@H](OC(=O)N3Cc4cccc(N5CCOCC5)c4C3)CN2C1=O`, the EC50 in data set [1] is 77 nM. The 50% inhibitory concentration (IC50) in [2] stood at 1.8 nM.

On to `CC(C)(C)OC(=O)N[C@H]1CCCCC/C=C\[C@@H]2C[C@@]2(C(=O)NS(=O)(=O)C2CC2)NC(=O)[C@@H]2C[C@@H](OC(=O)N3CCc4ccc(Cl)cc4C3)CN2C1=O`, for which, in data set [1], the concentration giving a half-maximal response (EC50) was 65 nM. In addition, the IC50 in [2] came out at 4.1 nM.

Consider `CC(C)(C)OC(=O)N[C@H]1CCCCCC[C@@H]2C[C@@]2(C(=O)NS(=O)(=O)C2CC2)NC(=O)[C@@H]2C[C@@H](OC(=O)N3Cc4cccc(F)c4C3)CN2C1=O`, for which the 50% effective concentration (EC50) in data set [1] came to 22.5 nM. Further, the IC50 in data set [2] was 1.5 nM.

As to `CC(C)(C)OC(=O)N[C@H]1CCCCC/C=C\[C@@H]2C[C@@]2(C(=O)NS(=O)(=O)C2CC2)NC(=O)[C@@H]2C[C@@H](OC(=O)N3Cc4cccc(N)c4C3)CN2C1=O`, the EC50 in [1] was determined as 4.1 nM. For the same compound, the IC50 in [2] turned out to be 0.2 nM.

On to `CC(C)(C)OC(=O)N[C@H]1CCCCC/C=C\[C@@H]2C[C@@]2(C(=O)NS(=O)(=O)C(F)(F)F)NC(=O)[C@@H]2C[C@@H](OC(=O)N3Cc4ccccc4C3)CN2C1=O`, for which the 50% effective concentration (EC50) in [1] stood at 166 nM. Besides, the IC50 in data set [2] came to 4.8 nM.

For `CC(C)(C)OC(=O)N[C@H]1CCCCC/C=C\[C@@H]2C[C@@]2(C(=O)NS(=O)(=O)C2CC2)NC(=O)[C@@H]2C[C@@H](OC(=O)N3CCc4cc(C(F)(F)F)ccc4C3)CN2C1=O`, the concentration for a half-maximal effect (EC50) in data set [1] was found to be 35 nM. The IC50 in data set [2] was determined as 2.6 nM.

Consider `CC(C)(C)OC(=O)N[C@H]1CCCCC/C=C\[C@@H]2C[C@@]2(C(=O)NS(=O)(=O)C2CC2)NC(=O)[C@@H]2C[C@@H](OC(=O)N3Cc4cccc(C(F)(F)F)c4C3)CN2C1=O`, for which the 50% effective concentration (EC50) in data set [1] came out at 29 nM. The half-inhibitory concentration (IC50) in data set [2] came out at 1.2 nM.

As to `CN1CCN(c2ccc3c(c2)CN(C(=O)O[C@@H]2C[C@H]4C(=O)N[C@]5(C(=O)NS(=O)(=O)C6CC6)C[C@H]5/C=C\CCCCC[C@H](NC(=O)OC(C)(C)C)C(=O)N4C2)C3)CC1`, the EC50 in data set [1] worked out at 41 nM. The half-inhibitory concentration (IC50) in data set [2] is 2 nM.

As to `COc1ccc2c(c1)CN(C(=O)O[C@@H]1C[C@H]3C(=O)N[C@]4(C(=O)NS(=O)(=O)C5CC5)C[C@H]4/C=C\CCCCC[C@H](NC(=O)OC(C)(C)C)C(=O)N3C1)C2`, the EC50 in data set [1] is 22 nM. Further, in [2], the concentration for half-maximal inhibition (IC50) was found to be 2.3 nM.

Regarding `CC(C)(C)OC(=O)N[C@H]1CCCCC/C=C\[C@@H]2C[C@@]2(C(=O)NS(=O)(=O)C2CC2)NC(=O)[C@@H]2C[C@@H](OC(=O)N3Cc4ccc(N)cc4C3)CN2C1=O`, the concentration giving a half-maximal response (EC50) in data set [1] came out at 42 nM. Besides, the half-maximal inhibitory concentration (IC50) in data set [2] came out at 1.5 nM.

Consider `CC1CN(C(=O)O[C@@H]2C[C@H]3C(=O)N[C@]4(C(=O)NS(=O)(=O)C5CC5)C[C@H]4/C=C\CCCCC[C@H](NC(=O)OC(C)(C)C)C(=O)N3C2)Cc2ccccc21` (some centres undefined), for which the EC50 in data set [1] was determined as 5.7 nM. The IC50 in data set [2] is 1 nM.

Take `CC(C)(C)OC(=O)N[C@H]1CCCCC/C=C\[C@@H]2C[C@@]2(C(=O)NS(=O)(=O)c2cc(F)ccc2F)NC(=O)[C@@H]2C[C@@H](OC(=O)N3Cc4ccccc4C3)CN2C1=O`: the EC50 in data set [1] worked out at 285 nM. In addition, in [2], the IC50 came out at 0.7 nM.

In the case of `CC(C)(C)OC(=O)N[C@H]1CCCCC/C=C\[C@@H]2C[C@@]2(C(=O)O)NC(=O)[C@@H]2C[C@@H](OC(=O)N3Cc4ccc(F)cc4C3)CN2C1=O`, in data set [1], the EC50 worked out at 3220 nM. For the same compound, the IC50 in [2] worked out at 38 nM.

As to `CC(C)(C)OC(=O)N[C@H]1CCCCC/C=C\[C@@H]2C[C@@]2(C(=O)NS(=O)(=O)C2CC2)NC(=O)[C@@H]2C[C@@H](NC(=O)c3nc4ccccc4s3)CN2C1=O`, the EC50 in data set [1] was 13 nM. Further, in data set [2], the IC50 was 3.5 nM.

Take `CC(C)(C)OC(=O)N[C@H]1COCCC/C=C\[C@@H]2C[C@@]2(C(=O)NS(=O)(=O)C2CC2)NC(=O)[C@@H]2C[C@@H](OC(=O)N3Cc4cccc(F)c4C3)CN2C1=O`: the concentration giving a half-maximal response (EC50) in data set [1] is 70.2 nM. Also, the IC50 in data set [2] is 1.8 nM.

For the compound `CC(=O)O[C@@H]1C[C@H]2C(=O)N[C@]3(C(=O)NS(=O)(=O)C4CC4)C[C@H]3/C=C\CCCCC[C@H](NC(=O)OC(C)(C)C)C(=O)N2C1`, the half-maximal effective concentration (EC50) in data set [1] was 3910 nM. Moreover, the IC50 in [2] was 12 nM.
